We go through three compounds from patent US12590164B2, “Productivity-enhanced antibody and method for producing same” (Yonsei University BioHealth Technology Holdings, Inc., priority 2018, dated 2026).

One series has as its system CHO-K1 cells. Briefly: Rituximab production by transduced CHO-K1 cells after addition of reagent (purified antibody amount, Western blotting of medium). The format is cell-based, Chinese hamster. The note with it: for production of the heavy and light chains of rituximab over time: medium at 24, 48, 72 hours. The protocol:
Antibody Production: CHO-K1 cells were inoculated into a 12-well plate at 1×10^5 cells/well and then cultured. The next day, the culture medium having lentivirus-containing cells and a fresh culture medium were mixed at a ratio of 1:1, and treatment with this mixture was performed. Culture was performed for 24 hours. The culture medium was replaced with a new medium, and then treatment with puromycin and blasticidin at 10 μg/ml each was performed for selection. When 72 hours elapsed, the remaining cells were proliferated to obtain sufficient cells. For the cells thus obtained, the culture medium was replaced with a serum-free medium (EX-CELL CD CHO Serum-Free Medium for CHO Cells, Chemically Defined, Sigma, 14360C), and then treatment with Thiamet-G (Sigma Cat #SML0244) reagent at a concentration of 30 μM was performed. The cells were cultured in a CO2 incubator at 30° C. for 2 weeks. Then, the culture medium was collected and centrifuged at 1000 rcf for 3 minutes at 4° C. Only the supernatant was transferred separately into a clean tube, and the cells mixed with the supernatant were removed. The resultant was stored at 4° C.
Antibody Purification: the antibody-containing culture medium was treated with protein A agarose beads (Pierce Protein A Agarose, Therm Fisher Scientific, QE218104), and the reaction was allowed to proceed at 4° C. for 4 hours. The supernatant was removed by centrifugation, and washing with a washing buffer (0.1 M NaPO4, 0.15 M NaCl, pH 7.4) was performed five times. For the beads from which the supernatant was removed, elution was again performed 5 times with an elution buffer (0.2 M glycine, pH 3) in the same bead volume. […] Then, the total protein was quantified by the Bradford method.
To identify changes in protein amount of heavy and light chains of antibody caused by treatment with Thiamet-G, the following experiment was performed to check changes in antibody production over time after addition of Thiamet-G. The cell culture medium was collected when 24 hours, 48 hours, and 72 hours elapsed after addition of Thiamet-G at a concentration of 30 μM. […] The ECL solution was used to sensitize an x-ray film (FIG. 2), and production of the heavy and light chains at each time point was analyzed (FIG. 3).
During the antibody production process, the reagent OSMI-1 (Sigma #SML1621), which corresponds to an OGT inhibitor, at a concentration of 30 μM was added in place of Thiamet-G. Then, in the same manner as described above, the cell culture medium was collected when 24 hours, 48 hours, and 72 hours elapsed, and the production of the antibody and its heavy chain was analyzed through Western blotting (FIGS. 4-5). […]
(In western blotting, separated proteins are transferred to a membrane and probed.)

Series [1] has as its system O-linked N-acetylglucosamine (O-GlcNAc) in rituximab. Briefly: Degree of binding of O-GlcNAc in rituximab (RL2 Western blotting, metabolic labeling). The format is cell-based. The protocol: Based on the total protein amount, the isolated rituximab was subjected to electrophoresis on acrylamide gel so that proteins were separated by size. Then, the proteins were transferred to a nitrocellulose membrane. Portions other than the proteins electrically transferred to the nitrocellulose membrane were blocked with TBS-T containing 5% non-fat milk and 0.1% Tween 20 at room temperature for 1 hour. Incubation with O-linked N-acetylglucosamine (O-GlcNAc)-specific antibody (RL2-HRP) was performed at room temperature for 1 hour, and then washing with TBS-T was performed three times for 10 minutes each. The ECL solution was used to sensitize an x-ray film (FIG. 6A).
The ECL solution was used to sensitize an x-ray film (FIG. 6B).
The cell line was cultured for 72 hours in a serum-free RPMI medium treated with Thiamet-G (TMG) at 50 μM, and then harvested. Then, a cell lysate was prepared. […] Then, Coomassie blue staining was performed. The results are illustrated in FIGS. 7A-7B. Here, however, as a control, Mabthera (Mab) (Roche) was used.
To further identify differences in degree of binding of O-GlcNAc in antibody, a comparison of O-GlcNAc binding amount using metabolic labeling wax performed. […] The cell line was treated with Thiamet-G at 50 μM and Ac4GlcNAz (azido sugar) at 50 μM and cultured for 4 days. […] O-GlcNAc in the rituximab was subjected to metabolic labeling.

The test system of series [2] is CHO cell line expressing rituximab. Nature of the series: Antibody production after Thiamet-G, cell line expressing rituximab. The format is cell-based, Chinese hamster. The note with it: 50 μM, 30° C. The protocol:
(§1) The next day, treatment with Thiamet-G at 50 μM in 3 ml of CHO medium was performed, and culture was performed at 30° C. for 2 weeks. Then, the medium was harvested. The same volume of medium was subjected to electrophoresis so that proteins were separated by size, and then the proteins were transferred to a PVDF membrane. Portions other than the proteins electrically transferred to the membrane were blocked with TBS-T containing 5% non-fat milk and 0.1% Tween 20 at room temperature for 1 hour. […] The ECL solution was used to sensitize an x-ray film (FIG. 19), and changes in production depending on treatment with Thiamet-G were measured for each antibody (FIG. 20).
(§2) The next day, treatment with Thiamet-G at 50 μM in 3 ml of CHO medium was performed, and culture was performed at 30° C. for 7 days. Then, the medium was harvested. The same volume of medium was subjected to electrophoresis so that proteins were separated by size, and then the proteins were transferred to a PVDF membrane. Portions other than the proteins electrically transferred to the membrane were blocked with TBS-T containing 5% non-fat milk and 0.1% Tween 20 at room temperature for 1 hour. […] The ECL solution was used to sensitize an x-ray film (FIGS. 22-23).

For series [3], the system named is CHO cell line expressing nivolumab. Nature of the series: Antibody production after Thiamet-G, cell line expressing nivolumab. The series is classed as cell-based, Chinese hamster. The settings on record: 50 μM, 30° C. The protocol:
as §1, §2

Series [4] deals with CHO cell line expressing pembrolizumab. Briefly: Antibody production after Thiamet-G, cell line expressing pembrolizumab. The format is cell-based, Chinese hamster. The note with it: 50 μM, 30° C. The protocol:
as §1, §2

The test system of series [5] is O-linked N-acetylgalactosamine (O-GalNAc) in rituximab. Nature of the series: Degree of binding of O-GalNAc in rituximab (Jacalin lectin blotting, LC-MS/MS). The format is cell-based. The protocol: The nitrocellulose membrane was blocked with PBS-T (Tween 0.5%) for 1 hour. Then, an O-GalNAc-binding lectin (biotinylated-Jacalin) was added thereto, and incubation was performed at room temperature for 1 hour. Washing with PBS-T was performed three times for 10 minutes each, and then incubation with streptavidin-HRP was performed at room temperature for 30 minutes. Washing with PBS-T was performed three times for 10 minutes each, and then the ECL solution was used to sensitize an x-ray film. […] Then, washing with TBS-T was performed three times for 10 minutes each. The ECL solution was used to sensitize an x-ray film (FIGS. 17A-17B).

In series [6] the test system is Ramos cells. Briefly: Complement-dependent cytotoxicity with rabbit complement. The series is classed as cell-based. The note with it: 0.1-10 ug/ml, rabbit complement 1:4, 2 hours; compared to the rituximab obtained without any treatment. The protocol: Complement-Dependent Cytotoxicity (complementary dependent cell death): Ramos cells were treated with 5 uM of calcein-AM in a serum-free RPMI, and then incubated at 37° C. for 30 minutes. The stained Ramos cells were dispensed in an amount of 1×10^5 cells/well.

In series [7] the test system is Ramos cells. Briefly: Binding affinity of rituximab to Ramos cells by flow cytometry. The note with it: 0.1-10 μg/ml, 4° C. 30 minutes, FACS; compared to the rituximab obtained without any treatment. The protocol: Then, incubation was performed at 4° C. for 30 minutes. Washing with PBS was performed once, and then treatment with anti-human Ig Fc-specific FITC-conjugated secondary antibody (109-095-008, 1:200 dilution; Jackson Laboratories), which was diluted […] with 50 μl PBS, was performed. Incubation was performed at 4° C. for 30 minutes. […] Analysis was performed with the FlowJo software (FIG. 14).
(In general: In flow cytometry, cells or beads pass a laser one at a time.)

For the compound `COc1ccccc1[C@@H](NS(=O)(=O)c1ccc2[nH]c(=O)ccc2c1)C(=O)N(Cc1ccco1)Cc1cccs1` [OSMI-1], the “production of the heavy and light chains of rituximab over time” value with CHO-K1 cells (30 μM, Western blotting) was “extent of increase in production decreased as compared with the untreated negative control”.
Consider `CCN=C1N[C@@H]2[C@@H](O)[C@H](O)[C@@H](CO)O[C@@H]2S1` [Thiamet-G], for which the “O-GlcNAc in rituximab, metabolic labeling” value in series [1] (50 μM with Ac4GlcNAz 50 μM, 4 days, streptavidin-HRP) was “increased”. Further, in series [1] (50 μM, 2 weeks at 30° C., RL2-HRP, reducing and non-reducing conditions), the O-GlcNAc in rituximab result was “increased”. Moreover, the “degree of binding of O-GlcNAc in rituximab” value in series [1] (rituximab of Example 1, RL2-HRP Western blotting, same amount of rituximab) was “increased”. Also, the “production of the light chain of rituximab” value in series [2] (2 weeks) is on record as “increased remarkably by two or more times”. Moreover, in series [2] (7 days), the production of rituximab result is “increased remarkably”. The “production of the light chain of nivolumab” value in series [3] (2 weeks) was “increased remarkably by two or more times”. Further, the production of nivolumab entry in series [3] (7 days) was “increased remarkably”. Moreover, the “production of the light chain of pembrolizumab” value in series [4] (2 weeks) is “increased remarkably by two or more times”. The production of pembrolizumab entry in series [4] (7 days) was “increased remarkably”. In addition, in the series with CHO-K1 cells (0, 30 or 50 μM for 72 hours, Western blotting), the “production of rituximab depending on treatment concentration” value is “increased proportionally”. Besides, the “production of the purified rituximab antibody, increase versus no treatment” value in the series with CHO-K1 cells (30 μM, 30° C., 2 weeks, FIG. 1) was “about 2 times”. For the same compound, in the series on CHO-K1 cells (30 μM, Western blotting), the “production of the heavy and light chains of rituximab over time” value is recorded as “remarkably increased over time”. Further, in series [5] (LC-MS/MS, untreated rituximab has O-GalNAc on 7 light chain residues), the “binding of O-GalNAc to light chain residues of rituximab” value was “decreased in 5 out of the 7 residues”. Moreover, the “O-GalNAc bound to rituximab” value in series [5] (biotinylated-Jacalin lectin blotting, same amount of rituximab) is recorded as “decreased”.
Take “rituximab, which underwent O-linked glycosylation by treatment with Thiamet-G: rituximab (SEQ ID NO: 5 and 6) produced in CHO-K1 cells with Thiamet-G, O-GlcNAc bound to light chain serines 7, 12, 14, 181”: the complement-dependent cytotoxicity entry in the series on Ramos cells [6] is on record as “no difference”. In addition, the binding affinity result in the series on Ramos cells [7] is “no difference”.
